Measurements as given in patent publication US7138361B2, “Herbicidal heterocycles” (E. I. du Pont de Nemours and Company, priority 2000, dated 2006).

Experiments:
Experiment in all cases: Test C preemergence
Format in all cases: in vivo
Sunflower [1] = conditions: Rate 250 g/ha, scale 0 to 100, 0 no effect, 100 complete control
[2] = test system: lambsquarters (Chenopodium album)
Summary of the method: (§1)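 Response scores (0 no effect to 100 complete control) came from visual comparison with untreated controls 12 to 14 days after treatment. Preemergence application was made to seeded soil; postemergence, to plants at the 1- to 4-leaf stage.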

[3] = test system: woolly cupgrass (Eriochloa villosa)
Summary of the method: as §1

[4] = test system: pigweed (Amaranthus retroflexus)
Summary of the method: as §1

[5] = test system: morningglory (Ipomoea hederacea)
Summary of the method: as §1

Nightshade = test system: Nightshade
corn (Zea mays) = test system: corn (Zea mays)
Summary of the method: as §1

[6] = test system: giant foxtail (Setaria faberii)
Summary of the method: as §1

[7] = test system: cocklebur (Xanthium strumarium)
Summary of the method: as §1

[8] = test system: johnsongrass (Sorghum halepense)
Summary of the method: as §1

kochia (Kochia scoparia) = test system: kochia (Kochia scoparia)
Summary of the method: as §1

[9] = test system: yellow nutsedge (Cyperus esculentus)
Summary of the method: as §1

[10] = test system: goosegrass (Eleusine indica)
Summary of the method: as §1

[11] = test system: Surinam grass (Brachiaria decumbens)
Summary of the method: as §1

Sunflower [12] = conditions: Rate 125 g/ha; scale 0 to 100, 0 no effect, 100 complete control
[13] = test system: common ragweed (Ambrosia elatior)
Summary of the method: as §1

soybean (Glycine max) = test system: soybean (Glycine max)
Summary of the method: as §1

[14] = test system: bermudagrass (Cynodon dactylon)
Summary of the method: as §1

[15] = test system: velvetleaf (Abutilon theophrasti)
Summary of the method: as §1

[16] = test system: crabgrass (Digitaria sanguinalis)
Summary of the method: as §1

[17] = Rate 125 g/ha, scale 0 to 100, 0 no effect, 100 complete control
[18] = preemergence, Rate 62 g/ha, scale 0 to 100
[19] = preemergence, Rate 500 g/ha, visual evaluation after 12 to 14 days
[20] = preemergence, Rate 250 g/ha, scale 0 to 100, 0 no effect, 100 complete control

Cc1ccc(N2CCC(n3ccc(C(C)(C)C)n3)C2=O)cc1I (stereo not drawn) [Compound 122]
Plant response rating, Sunflower (Sunflower [1]): 0 | Plant response rating, Lambsquarters [2, 17]: 100 | Plant response rating, Lambsquarters [2, 18]: 100 | Plant response rating (0 to 100), Lambsquarters [2, 19]: 100 | Plant response rating, Lambsquarters [2, 20]: 100 | Plant response rating, Cupgrass, Woolly [3, 17]: 20 | Plant response rating, Cupgrass, Woolly [3, 18]: 0 | Plant response rating (0 to 100), Cupgrass, Woolly [3, 19]: 100 | Plant response rating, Cupgrass, Woolly [3, 20]: 100 | Plant response rating, Pigweed [4, 17]: 20 | Plant response rating, Pigweed [4, 18]: 0 | Plant response rating (0 to 100), Pigweed [4, 19]: 100 | Plant response rating, Pigweed [4, 20]: 20 | Plant response rating, Morningglory [5, 17]: 0 | Plant response rating, Morningglory [5, 18]: 0 | Plant response rating, Morningglory [5, 20]: 100 | Plant response rating, Nightshade (Nightshade; Rate 62 g/ha, scale 0 to 100): 0 | Plant response rating, Nightshade (Nightshade; [17]): 0 | Plant response rating, Nightshade (Nightshade; Rate 250 g/ha, scale 0 to 100, 0 no effect, 100 complete control): 30 | Plant response rating, Corn (corn (Zea mays); [17]): 0 | Plant response rating, Corn (corn (Zea mays); [18]): 0 | Plant response rating (0 to 100), Corn (corn (Zea mays); [19]): 0 | Plant response rating, Corn (corn (Zea mays); [20]): 0 | Plant response rating, Foxtail, Giant [6, 17]: 0 | Plant response rating, Foxtail, Giant [6, 18]: 0 | Plant response rating (0 to 100), Foxtail, Giant [6, 19]: 0 | Plant response rating, Foxtail, Giant [6, 20]: 0 | Plant response rating, Cocklebur [7, 17]: 0 | Plant response rating, Cocklebur [7, 18]: 0 | Plant response rating (0 to 100), Cocklebur [7, 19]: 0 | Plant response rating, Cocklebur [7, 20]: 0 | Plant response rating, Johnsongrass [8, 17]: 0 | Plant response rating, Johnsongrass [8, 18]: 0 | Plant response rating (0 to 100), Johnsongrass [8, 19]: 20 | Plant response rating, Johnsongrass [8, 20]: 0 | Plant response rating, Kochia (kochia (Kochia scoparia); [17]): 100 | Plant response rating, Kochia (kochia (Kochia scoparia); [18]): 100 | Plant response rating (0 to 100), Kochia (kochia (Kochia scoparia); [19]): 100 | Plant response rating, Kochia (kochia (Kochia scoparia); [20]): 100 | Plant response rating, Nutsedge [9, 17]: 0 | Plant response rating, Nutsedge [9, 18]: 0 | Plant response rating (0 to 100), Nutsedge [9, 19]: 0 | Plant response rating, Nutsedge [9, 20]: 0 | Plant response rating, Goosegrass [10, 17]: 100 | Plant response rating, Goosegrass [10, 18]: 90 | Plant response rating (0 to 100), Goosegrass [10, 19]: 100 | Plant response rating, Goosegrass [10, 20]: 100 | Plant response rating, Surinam grass [11, 17]: 0 | Plant response rating, Surinam grass [11, 18]: 0 | Plant response rating (0 to 100), Surinam grass [11, 19]: 60 | Plant response rating, Surinam grass [11, 20]: 20 | Plant response rating, Sunflower (Sunflower [12]): 0 | Plant response rating, Ragweed, Common [13, 17]: 0 | Plant response rating, Ragweed, Common [13, 18]: 0 | Plant response rating (0 to 100), Ragweed, Common [13, 19]: 100 | Plant response rating, Ragweed, Common [13, 20]: 20 | Plant response rating, Soybean (soybean (Glycine max); [17]): 0 | Plant response rating, Soybean (soybean (Glycine max); [18]): 0 | Plant response rating (0 to 100), Soybean (soybean (Glycine max); [19]): 0 | Plant response rating, Soybean (soybean (Glycine max); [20]): 0 | Plant response rating, Bermudagrass [14, 17]: 100 | Plant response rating, Bermudagrass [14, 18]: 100 | Plant response rating (0 to 100 where 0 is no effect and 100 is complete control), Bermudagrass [14, 19]: 100 | Plant response rating, Bermudagrass [14, 20]: 100 | Plant response rating, Velvetleaf [15, 17]: 10 | Plant response rating, Velvetleaf [15, 18]: 0 | Plant response rating (0 to 100), Velvetleaf [15, 19]: 20 | Plant response rating, Velvetleaf [15, 20]: 20 | Plant response rating, Crabgrass [16, 17]: 100 | Plant response rating, Crabgrass [16, 18]: 90 | Plant response rating (0 to 100), Crabgrass [16, 19]: 100 | Plant response rating, Crabgrass [16, 20]: 100
